Assay results taken from ChEMBL document CHEMBL1201862, “PubChem BioAssay data set” (2004).
Values belong to the molecule of their own block, whether it stands above or below them. Calls of active or inactive are those of the source.

Assays:
[1] = Luminescence Cell-Based Dose Retest to Confirm Inhibitors of Cancer Stem Cells. [Related pubchem assays (depositor defined):AID2717, AID2721]; assay type: functional; settings: Homo sapiens
[2] = viability loss of HMLE_sh_eGFP cells – cell-based, luminescence, counter-screen for HMLE_sh_ECad selective toxicity project, dose response (AID 463074); assay type: functional, Homo sapiens;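 note: HMLE human mammary epithelial cells expressing control shRNA against eGFP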
HEK293 [3] = assay: cells; settings: Homo sapiens
HEK293 [4] = assay: cells; settings: Homo sapiens; remark: listed apart in the source
[5] = HEK-293T cell viability reduction – luminescence, B-cell screen hits, cytotoxicity control for BCR NF-kB inhibitor project, dose response (AID 489021); assay type: functional, cell-based;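 note: HEK-293T cells carrying an NF-kB luciferase reporter; cells exposed to compound for about 14 hours before viability readout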
Jurkat [6] = assay: SAR Analysis of small molecule inhibitors of […] specific antigen receptor-induced NF-kB activation in a Jurkat cell line using a luminescence assay - Set 3. [Related pubchem assays (depositor defined):AID435022, AID435025, AID465]; assay type: functional, cell-based; settings: Homo sapiens
HEK293 [7] = assay: SAR Analysis of small molecule inhibitors of B-cell specific antigen receptor-induced NF-kB activation in a HEK-293T cell line using a luminescence assay - Set 2. [Related pubchem assays (depositor defined):AID435022, AID435025, AID489021]; assay type: functional, cell-based; settings: Homo sapiens
HEK293 [8] = assay: HEK293T cell viability loss, resazurin readout – resazurin fluorescence, cytotoxicity control for NF-kB activator project, SAR follow-up (AID 493251); assay type: functional, cell-based; settings: Homo sapiens, HEK293
[9] = Trypanosoma cruzi growth suppression in host cells – NIH3T3 host cells, beta-gal luminescence, confirmation (AID 2044); assay type: functional, cell-based;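 note: intracellular parasites grown in NIH/3T3 mouse fibroblasts as host cells; luminescent beta-galactosidase reporter signal from transgenic T. cruzi replicating inside host cells; inhibitors lower the luminescence signal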
[10] = NIH3T3 cell viability loss – ATP luminescence, mouse fibroblasts, counter-screen, dose response (AID 2010); assay type: functional, cell-based;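 note: cells exposed to compound for about 90 hours before reading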
Beta-galactosidase = Beta-galactosidase (Escherichia coli, UniProt Q8VNN2); assay: detection-enzyme interference by beta-gal modulators – biochemical, E. coli enzyme, set 3, artefact control for CCR6 antagonist project, dose response (AID 504712); assay type: functional
Apelin receptor = Apelin receptor (Homo sapiens, UniProt P35414); assay: apelin receptor antagonists, arrestin read-out – cell-based, luminescent, enzyme-fragment complementation, selectivity assay for CCR6 antagonist project, SAR follow-up (AID 588359); assay type: functional
[11] = molecular target: T1, Calpain-2 catalytic subunit (Sus scrofa, UniProt P43367); assay: m-calpain protease blockers, concentration series – biochemical, fluorogenic peptide substrate, dose response (AID 1420); assay type: functional
T1 sequence (P43367 whole entry): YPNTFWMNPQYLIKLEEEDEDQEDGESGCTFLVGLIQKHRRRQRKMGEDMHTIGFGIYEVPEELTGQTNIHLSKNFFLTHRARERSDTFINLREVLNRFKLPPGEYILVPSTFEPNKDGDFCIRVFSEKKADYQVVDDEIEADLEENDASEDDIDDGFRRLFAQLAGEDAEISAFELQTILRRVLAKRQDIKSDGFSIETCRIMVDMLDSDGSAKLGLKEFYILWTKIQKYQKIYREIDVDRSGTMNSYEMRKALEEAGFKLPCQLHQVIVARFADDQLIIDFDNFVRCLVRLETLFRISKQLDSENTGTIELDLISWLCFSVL

[12] = molecular target: Intestinal-type alkaline phosphatase (Mus musculus, UniProt P24822); assay: PubChem AID 488785; assay type: functional
[13] = molecular target: T2, Alkaline phosphatase, tissue-nonspecific isozyme (Homo sapiens, UniProt P05186); assay: TNAP enzyme inhibition by screening hits, dose response, selectivity assay for mouse IAP inhibitor project, biochemical, human TNAP, uHTS hits (AID 488906); assay type: functional
T2 sequence (P05186 whole entry): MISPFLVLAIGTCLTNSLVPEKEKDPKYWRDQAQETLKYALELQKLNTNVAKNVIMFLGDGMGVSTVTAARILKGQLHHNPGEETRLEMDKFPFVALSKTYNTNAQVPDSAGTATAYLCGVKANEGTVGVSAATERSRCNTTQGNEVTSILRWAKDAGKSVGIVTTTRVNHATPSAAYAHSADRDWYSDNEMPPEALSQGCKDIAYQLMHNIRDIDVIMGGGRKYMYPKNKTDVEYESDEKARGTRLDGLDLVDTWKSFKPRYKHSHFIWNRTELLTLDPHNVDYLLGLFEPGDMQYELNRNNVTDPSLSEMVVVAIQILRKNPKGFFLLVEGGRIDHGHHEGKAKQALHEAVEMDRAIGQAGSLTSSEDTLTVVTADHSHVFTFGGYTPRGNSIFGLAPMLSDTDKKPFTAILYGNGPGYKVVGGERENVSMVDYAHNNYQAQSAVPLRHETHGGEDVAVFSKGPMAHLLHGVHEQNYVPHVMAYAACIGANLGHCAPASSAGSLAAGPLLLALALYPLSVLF

[14] = molecular target: Intestinal-type alkaline phosphatase (Homo sapiens, UniProt P09923); assay: inhibition of human intestinal alkaline phosphatase – biochemical, dose response (AID 488876); assay type: functional
Troponin, cardiac muscle = Troponin, cardiac muscle (Homo sapiens, UniProt P19429+P45379+P63316); assay: Fluorescence-based biochemical high throughput dose response assay for activators of the calcium sensitivity of cardiac Regulated Thin Filaments (RTF). [Related pubchem assays (depositor defined):AID493008, AID493018, AID504382, AID504383]; assay type: protein-complex assay
Cysteine protease ATG4B = molecular target: T3, Cysteine protease ATG4B (Homo sapiens, UniProt Q9Y4P1); assay type: functional;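 note: Fluorescence-based dose-response confirmation assay measuring inhibition of ATG4B activity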
T3 sequence (Q9Y4P1 whole entry): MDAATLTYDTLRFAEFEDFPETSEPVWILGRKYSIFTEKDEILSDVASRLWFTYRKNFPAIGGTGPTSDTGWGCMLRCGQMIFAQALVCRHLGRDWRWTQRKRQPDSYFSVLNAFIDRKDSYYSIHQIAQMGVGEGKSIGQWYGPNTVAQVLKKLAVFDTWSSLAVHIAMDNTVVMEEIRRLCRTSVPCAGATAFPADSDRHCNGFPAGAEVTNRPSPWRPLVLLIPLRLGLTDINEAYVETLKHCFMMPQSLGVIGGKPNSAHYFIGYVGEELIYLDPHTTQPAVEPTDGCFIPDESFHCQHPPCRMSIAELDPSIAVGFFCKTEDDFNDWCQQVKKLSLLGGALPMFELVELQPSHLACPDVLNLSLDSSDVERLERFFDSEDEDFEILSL

[15] = molecular target: T4, Microphthalmia-associated transcription factor (Homo sapiens, UniProt O75030); assay: reducers of TRPM1 reporter luminescence, concentration series – cell-based, SK-MEL-5, cherry-picked, set 3, MITF inhibitor project, dose response (AID 493073); assay type: functional;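 note: SK-MEL-5 melanoma cells with luciferase driven by the MITF target TRPM1 promoter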
T4 sequence (O75030 whole entry): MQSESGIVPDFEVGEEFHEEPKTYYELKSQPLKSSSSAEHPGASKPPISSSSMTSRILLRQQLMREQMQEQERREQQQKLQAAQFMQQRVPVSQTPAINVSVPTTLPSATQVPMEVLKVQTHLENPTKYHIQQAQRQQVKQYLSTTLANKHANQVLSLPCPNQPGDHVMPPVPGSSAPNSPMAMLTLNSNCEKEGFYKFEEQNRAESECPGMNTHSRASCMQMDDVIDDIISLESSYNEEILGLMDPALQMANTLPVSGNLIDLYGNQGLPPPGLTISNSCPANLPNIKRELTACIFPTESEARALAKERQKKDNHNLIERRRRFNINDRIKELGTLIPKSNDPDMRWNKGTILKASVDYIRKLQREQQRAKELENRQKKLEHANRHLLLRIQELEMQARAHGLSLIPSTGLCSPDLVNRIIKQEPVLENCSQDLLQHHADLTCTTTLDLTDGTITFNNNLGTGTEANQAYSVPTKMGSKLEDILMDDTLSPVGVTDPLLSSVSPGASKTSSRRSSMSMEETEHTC

Phospholipase A2 = Phospholipase A2 (Homo sapiens, UniProt P04054); assay type: functional;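 note: confirmatory dose-response counterscreen on phospholipase A2, testing hits that came from an ultra-high-throughput screen for ATG4B inhibitors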
A-375 [16] = assay: MITF: Counter assay: A375 proliferation Measured in Cell-Based System Using Plate Reader - 2084-03_Inhibitor_Dose_DryPowder_Activity. [Related pubchem assays (depositor defined):AID488944]; assay type: functional; settings: Homo sapiens
A-375 [17] = assay: proliferation inhibition in MITF-low A375 cells – cell-based, cherry-pick samples, set 2, counter-screen for MITF modulator project, dose response (AID 540335); assay type: functional; settings: Homo sapiens
[18] = molecular target: Voltage-dependent T-type calcium channel subunit alpha-1H (Homo sapiens, UniProt O95180); assay: inhibition of CACNA1H calcium flux – cell-based, SynthLib3 library, HEK293 Cav3.2, fluorescence (AID 493041); assay type: functional
Jurkat [19] = assay: blockers of NF-kB activation in T cells – Jurkat, luciferase reporter, luminescence, B- and T-cell, dose response (AID 489004); assay type: functional, cell-based; settings: Homo sapiens;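 note: NF-kB luciferase reporter Jurkat cells stimulated with PMA plus ionomycin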
[20] = HEK-293T viability loss, compound-treated – cell-based, uHTS hits, cytotoxicity control for B/T-cell NF-kB inhibitor project, dose response (AID 489019); assay type: functional;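 note: IC50 reflects cytotoxicity as loss of cell viability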
[21] = molecular target: Potassium voltage-gated channel subfamily KQT member 2 (Rattus norvegicus, UniProt O88943); assay: rat KCNQ2 current potentiators – automated patch clamp, KCNQ2-CHO cells, SAR follow-up (AID 493113); assay type: functional
Sequence of Potassium voltage-gated channel subfamily KQT member 2 (O88943 whole entry): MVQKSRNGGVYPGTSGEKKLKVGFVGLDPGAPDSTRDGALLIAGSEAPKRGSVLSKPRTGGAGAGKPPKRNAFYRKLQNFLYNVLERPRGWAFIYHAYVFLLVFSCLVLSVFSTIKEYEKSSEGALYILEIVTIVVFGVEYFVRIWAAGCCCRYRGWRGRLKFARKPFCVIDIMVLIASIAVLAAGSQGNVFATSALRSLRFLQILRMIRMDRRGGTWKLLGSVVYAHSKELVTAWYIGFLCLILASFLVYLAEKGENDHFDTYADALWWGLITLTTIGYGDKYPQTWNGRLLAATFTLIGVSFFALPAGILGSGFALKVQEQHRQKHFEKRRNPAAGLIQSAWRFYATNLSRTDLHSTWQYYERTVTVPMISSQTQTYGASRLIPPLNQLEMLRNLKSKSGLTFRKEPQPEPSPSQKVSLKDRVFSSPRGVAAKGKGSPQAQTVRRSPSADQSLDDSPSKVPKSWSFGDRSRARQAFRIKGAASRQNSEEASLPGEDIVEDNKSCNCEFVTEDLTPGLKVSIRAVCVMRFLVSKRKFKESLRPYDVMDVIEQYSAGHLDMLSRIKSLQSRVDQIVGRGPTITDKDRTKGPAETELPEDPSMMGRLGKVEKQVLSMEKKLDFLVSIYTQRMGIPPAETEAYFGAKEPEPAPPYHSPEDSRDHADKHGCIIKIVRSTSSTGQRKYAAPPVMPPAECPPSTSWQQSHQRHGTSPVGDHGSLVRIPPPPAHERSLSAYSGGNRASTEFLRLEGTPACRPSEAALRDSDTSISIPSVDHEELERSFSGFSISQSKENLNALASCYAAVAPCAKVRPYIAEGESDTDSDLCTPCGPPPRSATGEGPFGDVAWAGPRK

Sequence of Beta-galactosidase (Q8VNN2 whole entry, the tested form may be a part): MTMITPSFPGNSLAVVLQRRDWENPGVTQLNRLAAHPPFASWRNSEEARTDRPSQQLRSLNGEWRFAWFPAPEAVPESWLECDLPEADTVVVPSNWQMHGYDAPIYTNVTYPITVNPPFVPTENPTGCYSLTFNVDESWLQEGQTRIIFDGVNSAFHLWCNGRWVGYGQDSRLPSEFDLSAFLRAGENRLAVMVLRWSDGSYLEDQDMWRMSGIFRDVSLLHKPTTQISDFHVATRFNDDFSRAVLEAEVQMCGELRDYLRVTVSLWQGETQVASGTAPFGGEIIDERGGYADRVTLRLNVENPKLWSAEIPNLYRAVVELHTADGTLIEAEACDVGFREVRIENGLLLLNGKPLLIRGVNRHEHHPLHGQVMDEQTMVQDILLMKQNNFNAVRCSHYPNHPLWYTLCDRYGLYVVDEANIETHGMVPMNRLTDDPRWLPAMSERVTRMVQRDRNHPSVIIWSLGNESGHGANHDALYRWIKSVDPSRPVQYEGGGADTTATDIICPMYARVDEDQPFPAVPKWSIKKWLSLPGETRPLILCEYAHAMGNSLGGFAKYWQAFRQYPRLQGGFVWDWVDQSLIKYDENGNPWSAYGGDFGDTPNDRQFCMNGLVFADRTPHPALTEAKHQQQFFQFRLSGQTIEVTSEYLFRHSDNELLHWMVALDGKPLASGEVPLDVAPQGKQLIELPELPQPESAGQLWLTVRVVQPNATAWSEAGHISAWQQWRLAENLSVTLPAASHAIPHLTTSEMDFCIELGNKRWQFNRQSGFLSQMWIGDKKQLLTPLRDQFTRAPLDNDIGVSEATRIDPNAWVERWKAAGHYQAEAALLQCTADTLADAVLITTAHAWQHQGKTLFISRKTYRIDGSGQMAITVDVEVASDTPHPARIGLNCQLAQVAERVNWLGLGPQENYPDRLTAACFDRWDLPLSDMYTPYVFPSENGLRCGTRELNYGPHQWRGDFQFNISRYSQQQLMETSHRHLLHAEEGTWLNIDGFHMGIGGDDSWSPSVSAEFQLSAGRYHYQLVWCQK
Sequence of Intestinal-type alkaline phosphatase (Mus musculus, UniProt P24822) (P24822 whole entry): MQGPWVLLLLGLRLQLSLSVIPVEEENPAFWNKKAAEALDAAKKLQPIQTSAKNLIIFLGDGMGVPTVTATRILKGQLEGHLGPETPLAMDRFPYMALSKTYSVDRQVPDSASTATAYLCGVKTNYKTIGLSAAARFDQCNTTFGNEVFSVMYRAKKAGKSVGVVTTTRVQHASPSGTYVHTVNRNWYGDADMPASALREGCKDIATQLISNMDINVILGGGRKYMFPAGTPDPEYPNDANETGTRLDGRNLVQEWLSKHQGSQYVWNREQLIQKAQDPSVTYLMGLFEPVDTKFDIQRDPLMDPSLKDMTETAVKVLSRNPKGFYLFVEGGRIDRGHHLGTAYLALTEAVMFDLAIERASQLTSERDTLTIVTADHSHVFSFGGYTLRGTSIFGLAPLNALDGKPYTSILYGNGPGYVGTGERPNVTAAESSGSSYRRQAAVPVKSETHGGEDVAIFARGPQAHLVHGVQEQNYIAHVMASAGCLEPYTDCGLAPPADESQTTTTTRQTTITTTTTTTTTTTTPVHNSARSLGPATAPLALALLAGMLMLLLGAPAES
Sequence of Apelin receptor (P35414 whole entry, the tested form may be a part): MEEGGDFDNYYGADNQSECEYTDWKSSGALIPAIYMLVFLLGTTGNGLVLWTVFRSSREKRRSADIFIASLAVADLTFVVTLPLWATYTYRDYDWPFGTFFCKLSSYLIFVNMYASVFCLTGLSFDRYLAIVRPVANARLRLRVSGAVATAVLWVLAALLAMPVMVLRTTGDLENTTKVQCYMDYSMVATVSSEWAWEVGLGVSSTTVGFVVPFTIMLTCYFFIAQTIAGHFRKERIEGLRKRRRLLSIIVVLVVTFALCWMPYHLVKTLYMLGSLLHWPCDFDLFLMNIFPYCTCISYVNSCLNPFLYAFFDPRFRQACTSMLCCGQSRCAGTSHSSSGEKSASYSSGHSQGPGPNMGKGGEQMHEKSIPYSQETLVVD
Sequence of Intestinal-type alkaline phosphatase (Homo sapiens, UniProt P09923) (P09923 whole entry): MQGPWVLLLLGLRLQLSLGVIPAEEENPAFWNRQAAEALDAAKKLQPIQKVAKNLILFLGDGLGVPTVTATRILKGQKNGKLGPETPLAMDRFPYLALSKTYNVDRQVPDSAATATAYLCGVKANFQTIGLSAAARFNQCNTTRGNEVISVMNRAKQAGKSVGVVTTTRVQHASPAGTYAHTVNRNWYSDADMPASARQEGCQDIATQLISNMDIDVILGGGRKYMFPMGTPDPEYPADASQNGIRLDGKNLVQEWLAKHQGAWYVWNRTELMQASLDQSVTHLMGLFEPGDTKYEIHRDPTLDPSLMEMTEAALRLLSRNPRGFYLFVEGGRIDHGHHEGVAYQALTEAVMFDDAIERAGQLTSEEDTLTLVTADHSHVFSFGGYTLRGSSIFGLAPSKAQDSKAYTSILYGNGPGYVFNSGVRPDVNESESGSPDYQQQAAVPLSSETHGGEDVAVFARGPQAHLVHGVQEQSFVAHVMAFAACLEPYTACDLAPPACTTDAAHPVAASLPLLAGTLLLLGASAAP
Sequence of Phospholipase A2 (P04054 whole entry): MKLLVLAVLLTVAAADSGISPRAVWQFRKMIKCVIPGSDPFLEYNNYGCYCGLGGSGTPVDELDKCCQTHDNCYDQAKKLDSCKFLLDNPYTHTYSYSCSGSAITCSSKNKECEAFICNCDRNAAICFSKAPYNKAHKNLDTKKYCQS

SMILES: COc1cc(-c2noc(C)c2C#Cc2ccc(N)cc2)cc(OC)c1OC
AC50 [1]: 0.219 µM (active) | AC50 [2]: 8 µM (inconclusive)

SMILES: C=CCO/C(O)=C1\C(C)=NC(SCC(=O)Nc2nccs2)=C(C#N)C1c1ccc(Cl)cc1 (stereo unspecified)
EC50 (HEK293 [3]): > 59.6 µM (inactive) | EC50 (HEK293 [4]): > 59.6 µM (inactive)

SMILES: CSc1ccc(-c2nc(CSCC(=O)NC3CC3)c(C)o2)cc1
IC50 [5]: > 80 µM (inactive) | IC50 (Jurkat [6]): > 80 µM (inactive) | IC50 (HEK293 [7]): 49.7 µM (inactive) | IC50 (HEK293 [8]): > 80 µM (inactive)

SMILES: O=C(CSc1cccc2cccnc12)Nc1ccc(S(=O)(=O)N2CCOCC2)cc1
EC50 [9]: 1.58 µM (active) | EC50 [10]: 7.88 µM (active) | IC50 (Beta-galactosidase): > 66.6 µM (inactive) | IC50 (Apelin receptor): 11 µM (active)

IC50 [11]: 2.69 µM (not active) | IC50 [12]: 12.2 µM (active) | IC50 [13]: > 100 µM (inactive) | IC50 [14]: > 100 µM (inactive)
SMILES: O=C(Nc1ccc(Cl)cc1)NC1CCCCC1Cc1ccco1 (stereo unspecified)

SMILES: Cc1cc(C=C2C(=O)c3ccccc3C2=O)c(C)n1-c1ccccc1
EC50 (Troponin, cardiac muscle): > 7.94 µM (active) | IC50 (Cysteine protease ATG4B): 11 µM (active) | AC50 [15]: 3.78 µM (active) | IC50 (Phospholipase A2): 6.96 µM (active) | AC50 (A-375 [16]): > 11 µM (active) | AC50 (A-375 [17]): > 11 µM (active)

EC50 [18]: 6.4 µM (active)
SMILES: O=C(NC1CCC2CN(CC3CCCC3)CC21)c1cc(Cl)cc(Cl)c1 (stereo unspecified)

SMILES: O=C(NCCNCCO)C1(C(F)(F)F)C/C(=C\CCO)CCCO1 (stereo unspecified)
IC50 (Jurkat [19]): > 80 µM (inactive) | IC50 [20]: > 80 µM (inactive)

EC50 [21]: 0.22 µM (active)
SMILES: Cc1ccc(NC(=O)C2CC3CCC2C3)c(C)c1 (stereo unspecified)
